# Laboratory results from patent US8691802B2, “Stabilized compositions comprising a therapeutically active agent and an oxidizing preservative” (Allergan, Inc., priority 2005, dated 2014).
# Like-named read-outs stand apart in the source and are kept apart here.
# Conditions: for Stabilized Chlorine Dioxide Concentration: ingredient added to proprietary brimonidine composition; for Stabilization of chlorine dioxide by the excipient (in words): proprietary brimonidine composition
# Method: Each of the excipients was added, in the amounts shown, to a proprietary composition comprising brimonidine as a therapeutically active agent.
Structure (SMILES),Stabilized Chlorine Dioxide Concentration (0 Days) [ppm],Stabilized Chlorine Dioxide Concentration (7 Days) [ppm],Stabilized Chlorine Dioxide Concentration (14 Days) [ppm],Stabilization of chlorine dioxide by the excipient (in words)
CC(O)C(=O)[O-].[Na+] (stereo not shown) [Sodium Lactate],45,40,37,
O=C[O-].[Na+] [Sodium Formate],42,40,36,
O=C(O)CN(CCN(CC(=O)O)CC(=O)O)CC(=O)O [EDTA],44,2,0,do not stabilize
O=C([O-])C(=O)[O-].[Na+].[Na+] [Sodium Oxalate],39,38,35,similarly ineffective
O=C([O-])/C(O)=C(\O)C(=O)[O-].[Na+].[Na+] [Sodium Dihydroxyfurmarate],37,13,0,
CC(=O)C(=O)[O-].[Na+] [Sodium Pyruvate],,,,similarly ineffective
NCCN [Ethylene diamine],,,,do not stabilize
